Assay results published in PubChem BioAssay AID179 (DTP/NCI, 2004).
The source made the active and inactive calls.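 The calls were made as follows: active = compounds giving half or more protection of infected cells from virus-caused growth loss, again on retest; inactive = the rest.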 Where a SMILES comes first, the peptide text is derived from it. [ ]: non-standard residue; d: D form. The star is where a group is joined. mTyr = N[CH](Cc1cccc(O)c1)C(=O)O; Cbz = O=C(OCc1ccccc1)*; OBn = c1ccc(CO*)cc1

System: CEM cells HIV-1 protection, formazan growth assay
Test: NCI AIDS Antiviral Assay
Details: for IC50: measured here: growth of uninfected CEM cells
Outline: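 CEM (human) cells, HIV-1 infected vs uninfected, 5-point dosing, formazan growth read-out. Retest threshold 50% protection.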

Structure (SMILES)	EC50	IC50	outcome
CCOc1ncn(-c2ccc(NC(=S)Nc3cccc(O)c3)cc2)n1	> 200 µM	> 200 µM	
COC(=O)[C@H](CCSC)NCc1cc(N(C)C)cc(CN[C@@H](CCSC)C(=O)OC)n1	> 200 µM	> 200 µM	
CCN(CC)/[N+]([O-])=N/OCOC(C)=O	> 200 µM	102 µM	
S=c1[nH]nc2n1NC(c1ccccc1)=NN2	> 295 µM	> 295 µM	
CC(=O)Nc1ccc2cc(-c3ccc(Cl)cc3)c3nnnn3c2n1	> 200 µM	> 200 µM	
CC(O)C(O)C(O)C(O)c1nc2ccccc2[nH]1 (configuration not stated)			inactive
COC(=O)c1ccccc1NC(=O)C(=O)Cc1nc2c3c(ccc2[nH]c1=O)C(=O)c1ccccc1C3=O	> 20.4 µM	> 20.4 µM	
C/C=C(\C)C(=O)OC1CC(OC(C)=O)C2(C(=O)OC)COC3C2C1(C)C1C2(C(=O)OC)OCC1(C3O)C1(O)C3CC(C4(O)C=COC4O3)C1(C)O2 (configuration not stated)	> 200 µM	174 µM	
C/C=C\CCC1CCCCN(C(=O)OC(C)(C)C)C1OCC (configuration not stated)	> 158 µM	> 158 µM	
COc1ccc(NC(=O)CC(=O)Nc2ccc(OC)cc2)cc1	170 µM	> 200 µM	
Cn1c([C@H](C#N)C(=O)c2cc(O)ccc2[N+](=O)[O-])nc2ccccc21	> 200 µM	> 200 µM	
CC1(C)CNC[C@](C)(OCCOC(c2ccccc2)(c2ccccc2)c2ccccc2)C(=O)NC(C)(C)CNC[C@@](C)(OCCOC(c2ccccc2)(c2ccccc2)c2ccccc2)C(=O)N1	> 200 µM	> 200 µM	
COC1C(N(C)C)=C(c2ccccc2)C(=O)N2CCc3ccccc3C12 (configuration not stated)	> 200 µM	170 µM	
COc1cccc(C2c3cc4c(cc3OC(NNS(=O)(=O)c3ccc(C)cc3)C2C)OCO4)c1OC (configuration not stated)	> 200 µM	1.86 µM	
COc1ccc(C2=Nc3cc(C)c(C)cc3NC(c3ccccc3)C2)cc1 (configuration not stated)	> 200 µM	28.8 µM	
COc1cccc2c1OC(=O)C(S(=O)(=O)c1ccccc1)C2 (configuration not stated)	> 562 µM	> 562 µM	
CCCNC(=O)N(C)C(=O)N1N=C(c2ccccc2)C1c1ccccc1 (configuration not stated)	4.57 µM	52.5 µM	
N.N.N.N.[Co+3].[N-]=[N+]=[N-].[N-]=[N+]=[N-].[N-]=[N+]=[N-]			inactive
CC(C)=CC[P+](CCC[P+](CC=C(C)C)(c1ccccc1)c1ccccc1)(c1ccccc1)c1ccccc1	> 57.5 µM	> 57.5 µM	
O=C1CSSCC(=O)NCCCN1	> 45.7 µM	> 45.7 µM	
CCOc1ccc(NC(=O)C(=O)CC(=O)c2c(C)n([O-])c3ccccc3[n+]2=O)cc1	> 6.61 µM	> 6.61 µM	
C=CCOCn1ccc(N)nc1=O			inactive

Structure (SMILES)	EC50	IC50	outcome
COC(=O)C(Cc1cccc(O)c1)NC(=O)C(CC(=O)OCc1ccccc1)NC(=O)OCc1ccccc1 (configuration not stated) (Cbz-Asp(OBn)-[mTyr]-OMe; configuration not given here)	> 200 µM	91.2 µM	
O=C(O)CCSSCCCCCS(=O)O	> 200 µM	24 µM	
CC1(C)OCC([C@H]2CC23SCCCS3)O1 (some centres not stated)	> 200 µM	> 200 µM	
O=C1C=C(Nc2ccc(Cl)cc2C(=O)c2ccccc2)c2ccccc2C1=O	> 174 µM	> 174 µM	
Cc1ccc(C)n1-n1c(Cc2ccccc2)n[nH]c1=O	> 200 µM	83.2 µM	
CCOC(=O)C(=Cn1c(=S)[nH]c2ccc([N+](=O)[O-])cc21)C(=O)OCC	> 200 µM	77.6 µM	
O=C1c2ccccc2CC12Cc1ccc3c(c1C2=O)CCCC3 (configuration not stated)	> 200 µM	> 200 µM	
CCCCn1c(C)c2c(c1C)C(=O)N(CCN1CCN(c3ccccc3Cl)CC1)C2=O	> 200 µM	> 200 µM	
Cc1nn2c(nnn2CCO)c1-c1ccccc1	> 1020 µM	407 µM	
CCc1cccc(CC)c1NC(=S)N/C=C(\C#N)S(=O)(=O)c1ccc(C)cc1	> 200 µM	> 200 µM	
Cc1ccc(NC(=S)NNC(=O)c2cc(-c3ccccc3)nc3ccccc23)cc1	> 200 µM	12.9 µM	
O=C(Nc1cccc2ccccc12)Oc1ccccc1C1CCCCC1			inactive
C[C@]12CC[C@H](OC(=O)CCC(=O)O)C[C@H]1CC[C@@H]1[C@@H]2CC[C@]2(C)C(c3ccc(=O)oc3)CC[C@]12O (some centres not stated)	> 0.2 µM	0.0162 µM	
COc1ccc(C2C3=C(COC3=O)Oc3cc4c(cc32)OCO4)cc1OC (configuration not stated)	> 20 µM	0.603 µM	
O=C(O)CCCCCCCC(=O)O	> 1320 µM	> 1320 µM	
N#Cc1nc(C#N)n(C(=O)c2ccccc2)c1NC(=O)c1ccccc1	> 200 µM	> 200 µM	
COc1cc(C)c(O)c(C/C=C(\C)CC2=C[C@@]3(C)CCC[C@@]3(C)[C@]3(C=CC(C)(C)O3)O2)c1	> 40.7 µM	11 µM	
COc1ccc(/C=C/C(=O)c2c(-c3ccccc3)nn(C)c(=O)c2N2CCOCC2)cc1	> 44.7 µM	> 44.7 µM	
CCCCCCCCCCCCCCCC(=O)OC1C(O)C(CO)OC(OC)C1NC(=O)N(CCCl)N=O (configuration not stated)	> 12.6 µM	> 12.6 µM	
Cc1cc(S(=O)(=O)n2cc[nH]c2=O)c(S)cc1Cl	> 200 µM	> 200 µM	
C=C1C(C(=O)O)C1C(=O)O (configuration not stated)			inactive
CC(C)C(NC(=O)Oc1ccccc1)C(=O)NC1c2c(Br)sc(Br)c2C(=O)C1O (configuration not stated)	> 200 µM	11.7 µM	

Structure (SMILES)	EC50	IC50	outcome
O=C(O)C(=Cc1ccc(Br)cc1)C(=O)O	> 912 µM	> 912 µM	
C[C@H](c1ccccc1)N1C(=O)[C@@H](O)[C@H]1[C@H](CO)OCc1ccccc1	> 200 µM	> 200 µM	
CCNC(=O)Sc1ccccc1C(=O)NCCC(N)=O	1.1 µM	102 µM	
COc1c(OP2(=S)OCC(C)(C)CO2)cnn(C2CCCCC2)c1=O	> 200 µM	24.5 µM	
Cc1ccc(S(=O)(=O)n2c(-c3ccccc3)c(-c3ccccc3)c3ccccc32)cc1	> 50.1 µM	38.9 µM	
CC1=CCCC(C)C1(C)CC/C(C)=C/CC/C(C)=C/CS(=O)(=O)CCN=C(N)N (configuration not stated)	> 61.7 µM	10.7 µM	
CCOP(=O)(OCC)/C(C#N)=C/c1ccc(N(C)C)cc1	> 813 µM	437 µM	
COc1ccc(-c2coc3cc(O)cc(O)c3c2=O)cc1	> 200 µM	12.6 µM	
CCOP(=O)(O)C(Nc1ccc(N=Nc2ccccc2)cc1)c1ccc(C(Nc2ccc(N=Nc3ccccc3)cc2)P(=O)(O)OCC)cc1 (configuration not stated)	> 81.3 µM	30.2 µM	
Nc1cc(C(=O)O)ccc1O	> 200 µM	39.8 µM	
N#CSC1=C(SC#N)C(=O)c2ccccc2C1=O	> 200 µM	12.3 µM	
Cc1ccc(S(=O)(=O)N/N=C2/CC[C@H](C(C)(C)C)C[C@@H]2C)cc1	> 200 µM	21.9 µM	
Cn1cnc(=S)c2ccccc21	> 200 µM	> 200 µM	
CC(=O)SCCCn1c(=O)n(CCCSC(C)=O)c(=O)n(CCCSC(C)=O)c1=O	> 200 µM	12.3 µM	
C=CCOc1ccc(C2c3c([nH][nH]c3=O)CC(C)(O)C2C(=O)OC)cc1OC (configuration not stated)	> 200 µM	> 200 µM	
COc1ccc2c(c1OC)C(=O)O[C@@H]2[C@H]1c2c(cc3c(c2OC)OCO3)CCN1C	> 200 µM	24.5 µM	
CC(C)CNC(=O)c1c(NC(=O)c2ccccc2)sc2[nH]c(=O)n(-c3ccccc3)c(=O)c12	> 50.1 µM	> 50.1 µM	
Cc1cc2c(C)nn(Cc3ccc(Cl)cc3Cl)c2c(C#N)c1C	> 20.9 µM	> 20.9 µM	
Cc1oc2c(C)c3oc(=O)cc(C)c3cc2c1CCl	> 20 µM	2.95 µM	
CCOC(=O)C(CCc1ccccn1)C(C)=O (configuration not stated)	> 200 µM	> 200 µM	
O=C(Nc1ccc(S(=O)(=O)Nc2ccc(N=Nc3ccc(S(=O)(=O)Nc4nccs4)cc3)cc2)cc1)C(N1CC1)(N1CC1)N1CC1	> 200 µM	129 µM	
N#C/C(=C/NC(=S)NCc1ccccc1)C(N)=O	> 200 µM	> 200 µM	

Structure (SMILES)	EC50	IC50	outcome
N#CNC(=NCc1ccccc1)N(Cc1ccccc1)Cc1ccccc1	> 14.8 µM	> 14.8 µM	
CCOc1ccccc1NC(=O)C(=O)CC(=O)c1c(C)n([O-])c2ccccc2[n+]1=O	> 110 µM	> 110 µM	
O=C(Nc1cccc(C(F)(F)F)c1)O/N=C(/Cl)CCl	> 200 µM	33.9 µM	
O=c1[nH]c(=O)n(COCCO)c2ccc(Br)cc12	> 200 µM	> 200 µM	
O=c1[nH]c(Nc2cccc(C(F)(F)F)c2)nc2nc[nH]c12	> 200 µM	97.7 µM	
COc1cnc([C@H]2CCC3[C@@H]4CC=C5C[C@@H](O)CC[C@]5(C)C4CC[C@@]32C)s1 (some centres not stated)	> 4.9 µM	> 4.9 µM	
CC(C)C(=O)Oc1cc2c(=O)oc3c(OC(=O)C(C)C)c(OC(=O)C(C)C)cc4c(=O)oc(c1OC(=O)C(C)C)c2c34	> 50.1 µM	> 50.1 µM	
O=[N+]([O-])c1ccccc1OS(=O)(=O)c1ccccc1			inactive
O=[N+]([O-])c1cc(Cl)c(O)c(N=Nc2cc(S(=O)(=O)O)c3cccc4c3c2N=NN4)c1	> 91.2 µM	51.3 µM	
CCOC(=O)c1nnc2sc(-c3ccccc3)nn12	58.9 µM	191 µM	
CCOC(=O)C(=Cc1ccccc1[N+](=O)[O-])C(=O)OCC	> 324 µM	5.89 µM	
COC(=O)C1OC12CCCCC2 (configuration not stated)	> 200 µM	> 200 µM	
Cc1ccc(Oc2cc(C)ccc2P(=O)(O)O)cc1	> 200 µM	138 µM	
CN1C(=O)N(C)C(O)C1O (configuration not stated)	> 200 µM	> 200 µM	
CN(c1ccccc1)C1C(=O)N(c2ccccc2)C1/C=C/c1ccccc1 (configuration not stated)			inactive
CC1(C(=O)O)CCOc2ccccc21 (configuration not stated)			inactive
CCOC(=O)C1CC(C(=O)c2ccccc2)N2c3ccccc3-c3ccccc3C12 (configuration not stated)	> 200 µM	8.51 µM	
O=C(Nc1ccccc1)C(c1ccccc1)N(Nc1ccccc1Cl)c1ccccc1Cl (configuration not stated)	> 200 µM	33.9 µM	
Oc1ccccc1-c1n[nH]c(=S)n1/N=C/c1ccc(-c2ccc(Br)cc2)o1	> 42.7 µM	> 42.7 µM	
